These results are taken from PMC10904834 (Nature Communications, 2024).

Assay [1] deals with T1, BcATG4 (Botrytis cinerea, UniProt A6SDQ3).
T1 construct: gene atg4
As to the kind of experiment: isothermal titration calorimetry. Background: In ITC the heat of successive injections is recorded.

Assay [2] concerns the target T2, MoATG4 (Pyricularia oryzae, UniProt Q523C3).
T2 construct: gene ATG4
Conditions: 10 uM compound; RT, 10 min preincubation; thiol-reactive, proposed covalent.

Assay [3] addresses T1, BcATG4.
For assay [4], the target named is T2, MoATG4. Briefly: biochemical.

T2 sequence (Q523C3 whole entry, looked up): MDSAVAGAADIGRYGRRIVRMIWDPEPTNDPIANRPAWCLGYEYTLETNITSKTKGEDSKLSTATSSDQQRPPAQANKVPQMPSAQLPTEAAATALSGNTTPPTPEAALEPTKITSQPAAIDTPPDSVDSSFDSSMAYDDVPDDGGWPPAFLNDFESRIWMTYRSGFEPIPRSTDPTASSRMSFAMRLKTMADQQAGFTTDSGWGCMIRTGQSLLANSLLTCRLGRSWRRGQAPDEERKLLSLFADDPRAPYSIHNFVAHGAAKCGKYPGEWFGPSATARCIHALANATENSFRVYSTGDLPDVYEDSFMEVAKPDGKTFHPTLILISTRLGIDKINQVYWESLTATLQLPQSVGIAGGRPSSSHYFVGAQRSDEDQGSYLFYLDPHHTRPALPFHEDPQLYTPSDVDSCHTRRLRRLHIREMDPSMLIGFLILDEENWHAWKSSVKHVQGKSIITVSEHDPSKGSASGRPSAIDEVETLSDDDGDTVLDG
T1 sequence (A6SDQ3 whole entry): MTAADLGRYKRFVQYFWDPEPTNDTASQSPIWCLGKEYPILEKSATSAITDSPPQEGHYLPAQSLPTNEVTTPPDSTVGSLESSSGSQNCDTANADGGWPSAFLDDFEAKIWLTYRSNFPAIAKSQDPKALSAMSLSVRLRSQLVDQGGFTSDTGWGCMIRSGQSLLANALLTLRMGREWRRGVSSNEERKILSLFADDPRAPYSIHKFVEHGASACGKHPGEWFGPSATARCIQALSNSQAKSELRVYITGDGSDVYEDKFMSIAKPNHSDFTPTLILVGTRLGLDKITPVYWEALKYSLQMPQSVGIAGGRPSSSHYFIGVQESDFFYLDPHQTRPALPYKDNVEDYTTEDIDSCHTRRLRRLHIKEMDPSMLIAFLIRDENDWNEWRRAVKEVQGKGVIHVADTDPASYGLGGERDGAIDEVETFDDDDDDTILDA

For orientation: Kd means the constant that tells how readily two partners part at equilibrium. Higher therefore signals a looser complex. As a reminder, the IC50 is the concentration that inhibits the measured activity by half. Low values mean greater potency, high ones weaker potency. `O=c1c2ccccc2[se]n1-c1ccccc1` [EB, ebselen]: the Kd is 3.4 nM at BcATG4 [1] and 1 nM on MoATG4 [4]. The “in vitro cleavage of Citrine-MoATG8-ShR sensor, western blot” value (from here on “in vitro cleavage”) on MoATG4 [2] is “strong inhibition of the MoATG4-mediated cleavage of MoATG8 by EB and its analogs”. For the same compound, the concentration for half-maximal inhibition (IC50) against BcATG4 [3] is 620 ± 30 nM.

Consider `O=C1c2ccccc2[Se](=O)N1c1ccccc1` (centres unmarked) [EO, ebselen oxide], for which the “in vitro cleavage” value at MoATG4 [2] was “strong inhibition of the MoATG4-mediated cleavage of MoATG8 by EB and its analogs”. Also, the IC50 on BcATG4 [3] turned out to be 500 ± 30 nM.

`Cc1ccc(-n2sc3ccccc3c2=O)cc1` [PT, 2-(4-methylphenyl)−1,2-benzisothiazol-3(2H)-one]: the “in vitro cleavage” value on MoATG4 [2] was “strong inhibition of the MoATG4-mediated cleavage of MoATG8 by EB and its analogs”. Moreover, at BcATG4 [3], the IC50 is 1790 ± 240 nM.
